Assay results as given in patent US20240285615A1, “MEDICAMENTS COMPRISING GLYCOSIDASE INHIBITORS” (priority 2021, published 2024).
Like-named read-outs stand apart in the source and are kept apart here.

Experiments:
DSS colitis model = assay: In vivo treatment efficacy on DSS colitis model; settings: balb/c mice, oral gavage for 21 days, 5% DSS
Procedure: The dextran sodium sulfate (DSS) is a negatively charged sulfated polysaccharide of approximately 36-50 kDa which induces colitis when administered at 5% (weight/volume) in drinking water for several days (Okayasu I. et al. (1990) Gastroenterology 98:694-702).
Adult (balb/c) mice are randomized and are allowed to a period of acclimatization for one week. After this, the compound of formula (I) or vehicle is administered for 21 days by oral gavage, starting 2 weeks before the DSS treatment (Day −14) and continuing during DSS treatment and until the end of the experiment (Day +9). At Day 0, animals are getting access to a 5% (weight/volume) DSS solution in drinking water until Day +5. The DSS solution is then removed and replaced by drinking water for 4 more days until Day +9. From Day 0 until the end of the experiment […], animals are monitored daily for clinical signs of colitis including bodyweight loss, loose stools and/or diarrhoea and presence of occult or gross blood in the stools. At Day +12 or when animals reach humane endpoints, colons are dissected out, to measure their lengths and observe their content. A sample of distal colon is processed for histopathology. […]
Histological injury and inflammation are scored as described in Gilbert et al (2012) (Gilbert S. et al. (2012) EMBO Mol. Med. 4: 109-124). […]

[1] = Phase 1 Part 2: multiple BID doses for 12 days, plasma pharmacokinetics; type: in vivo, human; settings: for AR (accumulation ratio, AUC0-tau at Day 12/AUC0-tau at Day 1) / concentration at 12 day / Cmax / Tmax / half-life / AUC: plasma; for concentration at 12 day / Cmax / Tmax / half-life / AUC: both sexes, human; for concentration at 12 day: in vivo, read-out: Cmin; for Cmax / Tmax / half-life / AUC: oral; for Tmax: median (min, max); for AUC: read-out: AUC0-tau
Procedure: The study was a single-centre, randomized, placebo-controlled single- and multiple ascending dose study in healthy male and female (no childbearing potential) volunteers aged 18-80 years. Study objectives were safety, tolerability, food effect and pharmacokinetics. Following identification of safe and tolerable single doses in healthy male subjects aged 18-55 years, separate cohorts were dosed to assess food effect. Furthermore, multiple-dose safety, tolerability, pharmacokinetics, CSF drug levels and pharmacodynamics were assessed in elderly (age 55-80 years) male or healthy non-child-bearing potential female volunteers.
Day 1: Twice a day (BID) dosing. Day 2: No dosing. Day 3-11: 9 days of BID dosing. Day 12: one dose in the morning.

[2] = Phase 1 Part 2: cerebrospinal fluid (CSF) pharmacokinetics after multiple BID doses; type: in vivo, human; settings: for Cmax / AUC / half-life / Tmax: human, oral, CSF; for AUC: read-out: AUC0-tau; for Tmax: median (min, max)
adults with PSP = assay: Randomized, double-blind, placebo-controlled Phase 2 trial in PSP (Example 8); type: in vivo, human; settings: 75 mg, 150 mg or 300 mg TID PO, 72-week treatment
[3] = test system: patients with probable PSP Richardson's syndrome; assay: Phase 2 clinical trial in progressive supranuclear palsy (Example 6); type: in vivo, human; settings: 300 mg or 150 mg TID PO, clinical study protocol
Source text: CLINICAL STUDY PROTOCOL: A Randomized, Double-blind, Placebo-Controlled Study to Evaluate the Efficacy and Safety of compound of formula (I) for the Treatment of Progressive Supranuclear Palsy
PRIMARY OBJECTIVE: To evaluate the safety and tolerability of two different doses of compound (I) compared with placebo for the treatment of PSP
STUDY DESIGN: This is a randomized, multi-centre, double-blind, placebo-controlled trial to study the safety and tolerability of compound (I) in patients with probable PSP Richardson's syndrome. Approximately 40 patients (40 to 85 years of age, inclusive) are randomized in a 2:1:1 ratio to 300 mg or 150 mg or placebo TID PO with meals.
For all subjects, a screening visit is performed up to 6 weeks prior to dosing to determine eligibility. Eligible patients take investigational product (compound (I) or placebo) orally daily for about 12 weeks. Safety and tolerability data are collected at required visits to the study site. In addition, an “at home visit” for safety assessment and blood draw is organized. An open-label extension period of 52 weeks takes place upon completion of the initial double-blind treatment period. […]
PRIMARY SAFETY ENDPOINT: Frequency of treatment-emergent adverse events recorded in the three treatment arms at Week 12.

[4] = 100 mg BID, Day 12, elderly subjects, arithmetic mean
[5] = 250 mg BID, Day 12, elderly subjects, arithmetic mean
[6] = 500 mg BID, Day 12, elderly subjects, arithmetic mean
[7] = both sexes, 250 mg BID, Day 12, elderly subjects, arithmetic mean
[8] = both sexes, 500 mg BID, Day 12, elderly subjects, arithmetic mean
[9] = 100 mg BID, Day 12, elderly subjects, N=1

SMILES: CC(=O)Nc1nnc(N2CCN([C@@H](C)c3ccc4c(c3)OCO4)CC2)s1 [Compound (I)]
- disease score (body weight loss, stool, blood in feces, general appearance) (DSS colitis model): decrease in the disease score
- tissue inflammation by histology examination (DSS colitis model): significant decrease of tissue inflammation
- AR (accumulation ratio, AUC0-tau at Day 12/AUC0-tau at Day 1) [1, 4]: 1.35
- AR (accumulation ratio, AUC0-tau at Day 12/AUC0-tau at Day 1) [1, 5]: 1.36
- AR (accumulation ratio, AUC0-tau at Day 12/AUC0-tau at Day 1) [1, 6]: 1.25
- dose proportionality of Cmax, AUC0-tau and AUC12-24 ([1]; Day 1, BID 100 mg to BID 500 mg): Dose proportionality was observed
- dose proportionality of Cmax, AUC0-tau and AUC0-48 ([1]; Day 12, BID 100 mg to BID 500 mg): Dose proportionality was observed
- concentration at 12 day [1, 4]: 84 ng/mL
- concentration at 12 day [1, 5]: 308 ng/mL
- concentration at 12 day [1, 6]: 743 ng/mL
- Cmax ([1]; 100 mg, 100 mg BID, Day 1 (first dose), elderly subjects, arithmetic mean): 1450 ng/mL
- Tmax ([1]; 100 mg, 100 mg BID, Day 1 (first dose), elderly subjects): 0.75 h
- half-life ([1]; 100 mg, 100 mg BID, Day 1, elderly subjects, arithmetic mean, read-out: t1/2 (converted)): 3.9 h
- AUC ([1]; 100 mg, 100 mg BID, Day 1, tau 12 h, elderly subjects, arithmetic mean): 4120 ng·h/mL
- Cmax ([1]; 100 mg, 100 mg BID, Day 12, elderly subjects, arithmetic mean): 1340 ng/mL
- half-life ([1]; 100 mg, 100 mg BID, Day 12, elderly subjects, arithmetic mean, read-out: t1/2 (converted)): 7.84 h
- Tmax ([1]; 100 mg, 100 mg BID, Day 12, elderly subjects): 2.25 h
- AUC ([1]; 100 mg, 100 mg BID, Day 12, tau 12 h, elderly subjects, arithmetic mean): 5440 ng·h/mL
- Cmax ([1]; 250 mg, 250 mg BID, Day 1 (first dose), elderly subjects, arithmetic mean): 3630 ng/mL
- Tmax ([1]; 250 mg, 250 mg BID, Day 1 (first dose), elderly subjects): 0.5 h
- half-life ([1]; 250 mg, 250 mg BID, Day 1, elderly subjects, arithmetic mean, read-out: t1/2 (converted)): 4.74 h
- AUC ([1]; 250 mg, 250 mg BID, Day 1, tau 12 h, elderly subjects, arithmetic mean): 10700 ng·h/mL
- Cmax ([1]; 250 mg, 250 mg BID, Day 12, elderly subjects, arithmetic mean): 3740 ng/mL
- half-life ([1]; 250 mg, 250 mg BID, Day 12, elderly subjects, arithmetic mean, read-out: t1/2 (converted)): 10.2 h
- Tmax ([1]; 250 mg, 250 mg BID, Day 12, elderly subjects): 1 h
- AUC ([1]; 250 mg, 250 mg BID, Day 12, tau 12 h, elderly subjects, arithmetic mean): 14300 ng·h/mL
- Cmax ([1]; 500 mg, 500 mg BID, Day 1 (first dose), elderly subjects, arithmetic mean): 6440 ng/mL
- Tmax ([1]; 500 mg, 500 mg BID, Day 1 (first dose), elderly subjects): 1.02 h
- half-life ([1]; 500 mg, 500 mg BID, Day 1, elderly subjects, N=1, read-out: t1/2 (converted)): 6.19 h
- AUC ([1]; 500 mg, 500 mg BID, Day 1, tau 12 h, elderly subjects, arithmetic mean): 24300 ng·h/mL
- Cmax ([1]; 500 mg, 500 mg BID, Day 12, elderly subjects, arithmetic mean): 6670 ng/mL
- half-life ([1]; 500 mg, 500 mg BID, Day 12, elderly subjects, arithmetic mean, read-out: t1/2 (converted)): 10.7 h
- Tmax ([1]; 500 mg, 500 mg BID, Day 12, elderly subjects): 1.5 h
- AUC ([1]; 500 mg, 500 mg BID, Day 12, tau 12 h, elderly subjects, arithmetic mean): 30200 ng·h/mL
- half-life ([1]; 100 to 500 mg BID, single dose and multiple dose conditions, read-out: terminal half-life (t½), range of means): 3.9 to 10.7 h
- blood-brain-barrier penetration (detection in CSF) ([2]; Day 12 after multiple doses): penetrated through the blood-brain-barrier
- Cmax [2, 7]: 92.5 ng/mL
- AUC [2, 7]: 485 ng·h/mL
- half-life ([2]; both sexes, 250 mg BID, Day 12, elderly subjects, arithmetic mean, read-out: t1/2 (converted)): 10.3 h
- Tmax ([2]; both sexes, 250 mg BID, Day 12, elderly subjects): 3 h
- Cmax [2, 8]: 282 ng/mL
- AUC [2, 8]: 1400 ng·h/mL
- half-life ([2]; both sexes, 500 mg BID, Day 12, elderly subjects, arithmetic mean, read-out: t1/2 (converted)): 10.8 h
- Tmax ([2]; both sexes, 500 mg BID, Day 12, elderly subjects): 2.02 h
- half-life ([2]; both sexes, 100 to 500 mg BID, read-out: terminal half-life (t½), range of means): 3.9 to 10.7 h
- Cmax [2, 9]: 46.7 ng/mL
- AUC [2, 9]: 236 ng·h/mL
- half-life ([2]; 100 mg BID, Day 12, elderly subjects, N=1, read-out: t1/2 (converted)): 5.78 h
- Tmax [2, 9]: 4.03 h
- efficacy, safety and tolerability of the preferred dosage regimen (adults with PSP): especially effective, safe and well tolerated
- safety and tolerability of the preferred dosage regimen [3]: especially safe and well tolerated
